From PubChem BioAssay (NCI)
“And” between values parts separate entries of the source, which are not always exact repeats. Identical values can stand only once.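 Five compound concentrations were applied to cells in 96-well plates for 48 hours; endpoints were derived by simple linear interpolation of the resulting dose-response curve. GI50 is the concentration that inhibits growth by half. At the TGI there is no net growth.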

Assays:
Assay in all cases: inhibition of tumour cell growth, NCI panel, 48 h
SK-MEL-5 melanoma = test system: SK-MEL-5 melanoma
M14 melanoma = test system: M14 melanoma
UO-31 renal = test system: UO-31 renal
NCI-H23 lung = test system: NCI-H23 lung
U251 CNS = test system: U251 CNS
HCC-2998 colon = test system: HCC-2998 colon
OVCAR-3 ovarian = test system: OVCAR-3 ovarian
NCI-H522 lung = test system: NCI-H522 lung
SN12C renal = test system: SN12C renal
SF-539 CNS = test system: SF-539 CNS

SMILES | TGI (SK-MEL-5 melanoma) | TGI (M14 melanoma) | TGI (UO-31 renal) | TGI (NCI-H23 lung) | TGI (U251 CNS) [µM] | TGI (HCC-2998 colon) | TGI (OVCAR-3 ovarian) | TGI (NCI-H522 lung) | TGI (SN12C renal) | GI50 (SK-MEL-5 melanoma) [µM] | GI50 (M14 melanoma) [µM] | GI50 (NCI-H23 lung) [µM] | GI50 (U251 CNS) [µM] | GI50 (SF-539 CNS) [µM] | TGI (SF-539 CNS) [µM] | GI50 (HCC-2998 colon) [µM] | GI50 (OVCAR-3 ovarian) | GI50 (SN12C renal) [µM] | GI50 (UO-31 renal) [µM] | GI50 (NCI-H522 lung)
c1cc(C2N3CCCN2CC3)ccn1 (stereo unspecified) | > 100 µM | > 100 µM | > 100 µM | > 100 µM | > 100 | > 100 µM | > 100 µM | 18.4 µM | > 100 µM | – | – | – | – | – | – | – | – | – | – | –
ClC1=C(Cl)C(Cl)=C(Cl)C1=Cc1ccc(Cl)cc1Cl | 2.26 µM | 0.635 µM | – | 1.14 µM | 1.49 | 1.14 µM | 0.857 µM | – | 0.743 µM | 1.04 | 0.234 | 0.281 | 0.39 | 0.353 | 1.4 | 0.341 | 0.274 µM | 0.254 | – | –
CC(=O)Oc1cc(OC(C)=O)c2cc3c(cc2c1OC(C)=O)C(=O)C1(CCCC1)C3=O | – | 32.1 µM | 29.8 µM | 34.1 µM | 32.3 | 37.2 µM | 34.5 µM | – | 31.6 µM | – | – | – | – | – | – | – | – | – | – | –
COc1cc(C(=O)/C=C/c2c(-c3cccs3)nc3ccccn23)cc(OC)c1OC | 2.72 µM | – | 3.17 µM | 5.33 µM | 6.03 | 3.37 µM | 5.36 µM | 2.38 µM | 27 µM | 1.33 | – | 2.2 | 1.66 | 1.87 | 4.5 | 1.96 | 2.44 µM | 2.44 | 1.07 | 1.1 µM
O=C(Cc1nc2ccccc2s1)C(=O)Nc1ccc(Cl)cc1Cl | – | > 100 µM | > 100 µM | > 100 µM | > 100 | > 100 µM | > 100 µM | – | > 100 µM | – | – | – | – | – | > 100 | – | – | – | – | –
CC(C)(C)[Si](Nc1ccccc1)(c1ccccc1)c1ccccc1 | 34.2 µM | 27.5 µM | 18.5 µM | 32.8 µM | 26.8 | 30.7 µM | 27.4 µM | – | 28.3 µM | – | – | – | – | – | 25 | – | – | – | – | –
CC(C)[C@H](O)C(=O)N[C@H]1Cc2ccc3c(c2)[C@]24C5=C(N=C(O5)[C@H](C(C)C)NC1=O)c1nc(Cl)c(o1)-c1c(Cl)[nH]c5cccc(c15)-c1cccc2c1N[C@H]4O3 | – | > 10 µM | > 10 µM | 3.82 µM | – | – | 0.00747 µM | 0.00562 µM | – | < 0.001 | 0.0012 | < 0.001 | < 0.001 | – | 0.083 | < 0.001 | < 0.001 µM | – | – | –
O=C(Cc1ccccc1)NN1C(=O)C(Cl)C1c1ccccc1 (stereo unspecified) | > 100 µM | > 100 µM | > 100 µM | > 100 µM | > 100 | > 100 µM | > 100 µM | 3.93 µM | > 100 µM | – | – | – | – | – | – | – | – | – | – | –
CC1(C)CC(O)CCCCCCOc2c(CN)cccc2NC(=O)c2nc(cnc2N)-c2ccc(cc2)S1(=O)=O (stereo unspecified) | 2.89 µM | 2.58 µM | 2.25 µM | – | 1.86 | 4.24 µM | 3.34 µM | 2.96 µM | 2.49 µM | 1.5 | 0.0927 | – | 0.382 | 0.0363 | 1.73 | 2.01 | 0.183 µM | 0.761 | 0.648 | 1.22 µM
O=C1C(Nc2cccc(O)c2)=C(Sc2ccc(Cl)cc2)C(=O)N1Cc1ccccc1 | 24.7 µM | 38.5 µM | > 100 µM | 37.5 µM | 29.4 | 7.23 µM | 28.2 µM | > 100 µM | 55.1 µM | 8.44 | 6.94 | 6.77 | 10.3 | – | – | 2.94 | 10.6 µM | 15.8 | 7.93 | 21.3 µM
CO[C@@]12[C@H](COC(N)=O)C3=C(C(=O)C(C)=C(N)C3=O)N1C[C@@H]1N[C@@H]12 | 1.22 µM and 3.25 µM and 1.69 µM | 4.08 µM and 12.2 µM and 2.06 µM | 6.88 µM and 0.959 µM | 1.43 µM and 3.86 µM and 4.56 µM | – | 2.88 µM and 2.98 µM and 3.91 µM | 8.8 µM and 14.4 µM and 34.4 µM | 3.85 µM and 4.17 µM and 8.07 µM | 9.59 µM and 25 µM and 30.8 µM | 1.6 | 1.09 | 0.77 | – | – | – | 1.14 | 5.79 µM and 3.66 µM | 0.995 | – | 1.1 µM and 1.18 µM
COC(=O)c1cccc2c1Oc1ccccc1S2 | 54.9 µM | > 100 µM | > 100 µM | – | > 100 | – | > 100 µM | > 100 µM | > 100 µM | – | – | – | – | – | > 100 | – | – | – | – | –
CCCCCC/C=C/CCCCCCCc1cccc(O)c1C(=O)O | – | > 100 µM | > 100 µM | > 100 µM | 88.2 | – | > 100 µM | > 100 µM | – | – | – | – | – | – | > 100 | – | – | – | – | –
O=C(Nc1cc([N+](=O)[O-])cc([N+](=O)[O-])c1)OC1C2CCC1C1OC1C2 (stereo unspecified) | > 50 µM | > 50 µM | > 50 µM | > 50 µM | > 50 | > 50 µM | > 50 µM | > 50 µM | – | – | – | – | – | – | > 50 | – | – | – | – | –
CSc1ccc(C(=O)/C=C/c2ccc(F)cc2)cc1 | > 100 µM | > 100 µM | > 100 µM | > 100 µM | > 100 | > 100 µM | – | > 100 µM | > 100 µM | 75 | > 100 | > 100 | 32.9 | 49.6 | > 100 | 41.8 | – | > 100 | > 100 | 38.9 µM
CCC[CH2][Sn]1([CH2]CCC)[O]CC([CH2][Sn]([c]2ccccc2)([c]2ccccc2)[c]2ccccc2)[O]1 (stereo unspecified) | – | 31.4 µM | 28.7 µM | – | 19.9 | 22.4 µM | 29.9 µM | 3.37 µM | 27.7 µM | – | 15.9 | – | 6.5 | 15 | 28.3 | 10.2 | 14.9 µM | 14 | 15.3 | 1.4 µM
CN(/C(=N\O)c1ccccc1)c1ccccc1 | – | 57.5 µM | 69.3 µM | 61.2 µM | 37.6 | 73.5 µM | 59.2 µM | 40.3 µM | > 100 µM | – | – | – | – | – | 49.6 | – | – | – | – | –
